Measured values from patent US12150945B2, “Liver disease” (Lipocine Inc., priority 2018, dated 2024).

Legend:
Assay type in all cases: in vivo, human
hematocrit, hemoglobin = assay: Androgenic parameters (hematocrit, hemoglobin), change from baseline to end of study, safety set, trial of Example 1
Description: (§1) Oral testosterone therapy was evaluated in a multicenter, phase 3, randomized, open-label, active controlled, parallel-group study that included a 13-week efficacy phase and a 52-week safety phase. An active arm in which subjects received T gel was included for safety evaluation only.
(§2) Subjects were randomized in a 2:1 ratio to oral testosterone undecanoate or T gel. oral testosterone undecanoate subjects started at a dose of 225 mg TU (“testosterone undecanoate”) taken twice daily (total daily dose: 450 mg TU) every 12 hours. For optimal lymphatic absorption oral testosterone undecanoate must be administered with a meal. Therefore, subjects were instructed to administer oral testosterone undecanoate after a standard meal (defined as a meal consisting of 800 to 1400 calories with approximately 20% to 35% fat content). The oral testosterone undecanoate dose was titrated at Weeks 4 and 8, if necessary, based on results of intensive 24-hour PK blood sampling obtained at Weeks 3 and 7, respectively. Oral testosterone undecanoate subjects stayed at the clinic overnight during each intensive PK blood sampling period. […] Oral testosterone undecanoate dose levels permitted during the study were 150 mg BID, 225 mg BID, and 300 mg BID. Data collected during an intensive 24-hour PK sampling overnight stay at Week 13 were used for efficacy analysis; dose was not adjusted at this visit. Additional outpatient visits were conducted at Weeks 26, 39, and 52 during which single blood draws were performed 3 to 6 hours post morning dose. Dose was not adjusted during these visits.
(§3) T gel (ANDROGEL®) (testosterone gel for topical use) 1.62%, AbbVie, Chicago, Illinois, US) was supplied in non-aerosol, metered dose pumps that deliver 20.25 mg T per complete pump actuation. T gel was dosed according to product labeling. Subjects receiving T gel completed outpatient visits at Weeks 2 and 4 with single blood draws to determine titration and at Weeks 3 and 5 for dose changes, if necessary. They also completed an outpatient visit at Week 7 for safety assessments and at Weeks 13, 26, 39 and 52 during which single blood samples were obtained 3 to 6 hours after the morning dose. Dose was not adjusted during these visits. Overnight clinic stays were not required for T gel subjects.
(§4) Safety endpoints included adverse events (AEs), physical examination findings, vital signs, electrocardiograms (ECGs), and clinical laboratory tests. AEs were classified using the Medical Dictionary for Regulatory Activities (Version 16.1). Safety endpoints were summarized using descriptive statistics. Lab parameters were evaluated using two sample t-tests comparing change from baseline to end of study (EOS) across oral testosterone undecanoate and T gel subjects with p-values <0.05 considered statistically significant.

[1] = tested on: ALT, GGT, BUN, total cholesterol, LDL-C, triglyceride; assay: Liver Fat Study: normalization of labs (ALT, GGT, BUN, total cholesterol, LDL-C, triglyceride) at end of study (Example 6)
Description: (§5) This example is part of an ongoing Liver Fat Study which is an open-label, multi-center, single arm study evaluating LPCN 1144 treatment (e.g., androgen therapy, testosterone therapy, oral testosterone ester, or 225 mg testosterone undecanoate orally) in a cohort of 36 hypogonadal males (NCT03868059). Subjects with at least 10% baseline liver fat were evaluated which is indicative of subjects with NAFLD with the potential to have NASH. Interim results of seven of the nine subjects in the Liver Fat Study with baseline liver fat of at least 10% are presented as two subjects were unable to schedule an eight-week MRI-PDFF visit. Baseline mean liver fat of these seven subjects was 21.0%.
(§6) An MRI-PDFF study of 36 male hypogonadal subjects (having 2 morning testosterone levels of 300 ng/dL or less) was performed as part of an ongoing trial. Basic baseline labs including liver function tests (e.g., AST & ALT) and serum triglycerides were collected and analyzed. It was found by non-linear regression, that BMI (ALT, AST, serum Triglyceride) was associated with liver fat (P<0.006). It was found by non-linear regression, that serum triglyceride levels (obesity, hypertension, type 2 diabetes) were associated with liver fat (P<0.006).

liver function enzymes = assay: Liver function enzymes (ALT, AST, ALP, GGT, bilirubin), change from baseline to end of study, trial of Example 1
Description: as §1, §2, §3, §4

[2] = Serum DHT, DHT/T ratio, E2 and calculated free T, hormone assessment in trial of Example 1; conditions: for ratio of DHT/T based on Cavg0-24 h / ratio of DHT/T based on Cmax: normal range 0.05 to 0.33
Description: as §2
Serum levels of T, TU, dihydrotestosterone (DHT), dihydrotestosterone undecanoate (DHTU), and estradiol (E2) were evaluated in oral testosterone undecanoate treated subjects. […] Sex hormone binding globulin (SHBG) was evaluated in data from all subjects. Serum T concentrations at screening were measured using chemiluminescence immunoassay kits. Hormone assays for pharmacokinetic assessment were analyzed at PPD Bioanalytical Laboratory in Richmond, Virginia Serum samples were analyzed for T, DHT, TU, DHTU, and E2 using a validated liquid chromatography-tandem mass spectrometry (LC-MS/MS) assay.

liver fat = assay: Liver Fat Study: liver fat by MRI-PDFF in hypogonadal males treated with LPCN 1144 (Example 6); conditions: for Mean relative liver fat % change: 16 weeks of treatment
Description: In an a prospective design open-label, multi-center, single arm ‘Liver Fat Study’ evaluating LPCN 1144 (oral testosterone undecanoate) treatment in hypogonadal patients, baseline % liver fat was assessed via MRI-PDFF in a subset of study patients (N=36).
as §5, §6

[3] = Safety Set, baseline to end of study
[4] = 4th quartile patients based on lab parameter level, 1 year study
[5] = interim, eight-week MRI-PDFF, seven subjects with baseline liver fat of at least 10%

For CCCCCCCCCCC(=O)O[C@H]1CC[C@H]2[C@@H]3CCC4=CC(=O)CC[C@]4(C)[C@H]3CC[C@]12C [oral testosterone undecanoate, testosterone undecanoate], the “Elevated hematocrit (>54%), number of subjects” value (hematocrit, hemoglobin; 52-week safety phase) was 8 subjects, the “subjects withdrawn for elevated hematocrit (>54%)” value (hematocrit, hemoglobin; 52-week safety phase) was 1.4% and the “Hematocrit, mean (SD) change from baseline to end of study” value (hematocrit, hemoglobin; Safety Set, N = 314, baseline to end of study) was 2.54 (3.41) %. For the same compound, the “APTT, mean (SD) change from baseline to end of study” value (hematocrit, hemoglobin; [3]) was 0.61 (4.07), the “Hemoglobin, mean (SD) change from baseline to end of study” value (hematocrit, hemoglobin; [3]) was 7.2 (10.65) g/L and the “PSA, mean (SD) change from baseline to end of study” value (hematocrit, hemoglobin; [3]) was 0.27 (0.97) mcg/L. For the same compound, the “Platelets, mean (SD) change from baseline to end of study” value (hematocrit, hemoglobin; [3]) was 8.5 (31.34) 10^9/L, the “Prothrombin time, mean (SD) change from baseline to end of study” value (hematocrit, hemoglobin; [3]) was 0.31 (1.14) sec and the “hemoglobin, pretreatment to EOS” value (hematocrit, hemoglobin; in vivo) was “Small and similar increases”. For the same compound, the “normalization rate for LDL-C” value [1] was 50%, the “normalization rate for total cholesterol” value [1] was 29% and the “normalization rate for triglyceride” value [1] was 21%. The “subjects with BUN normalization” value [1] was 60%, the “subjects with above normal GGT levels who ended the study with normal GGT levels” value [1] was 0% and the “subjects with above normal ALT levels who ended the study with normal ALT levels” value ([1]; mean baseline ALT 48.7) was 100%. For the same compound, the “ALP, mean change from baseline” value (liver function enzymes; [4]) was −10.2 U/L, the “ALP, mean change from baseline, %” value (liver function enzymes; [4]) was −10.4% and the “ALT, mean change from baseline” value (liver function enzymes; [4]) was −10.0 U/L. For the same compound, the “ALT, mean change from baseline, %” value (liver function enzymes; [4]) was −16.7%, the “AST, mean change from baseline” value (liver function enzymes; [4]) was -6.3 U/L and the “AST, mean change from baseline, %” value (liver function enzymes; [4]) was −16.6%. The “Albumin, mean change from baseline” value (liver function enzymes; [4]) was -2.5 g/L, the “Albumin, mean change from baseline, %” value (liver function enzymes; [4]) was −3.1% and the “Bilirubin, mean change from baseline” value (liver function enzymes; [4]) was -0.18 mg/dL. For the same compound, the “Bilirubin, mean change from baseline, %” value (liver function enzymes; [4]) was −20.5%, the “Creatinine, mean change from baseline” value (liver function enzymes; [4]) was 0.01 mg/dL and the “Creatinine, mean change from baseline, %” value (liver function enzymes; [4]) was 0.8%. For the same compound, the “GGT, mean change from baseline” value (liver function enzymes; [4]) was −7.0 U/L, the “GGT, mean change from baseline, %” value (liver function enzymes; [4]) was −7.4% and the “ALT, mean (SD) change from baseline to end of study” value (liver function enzymes; [3]) was −3.07 (11.22) U/L. The “AST, mean (SD) change from baseline to end of study” value (liver function enzymes; [3]) was −1.5 (7.52) U/L, the “Alkaline phosphatase, mean (SD) change from baseline to end of study” value (liver function enzymes; [3]) was −4.1 (13.33) U/L and the “Bilirubin, mean (SD) change from baseline to end of study” value (liver function enzymes; [3]) was −0.43 (3.66) mcmol/L. The “GGT, mean (SD) change from baseline to end of study” value (liver function enzymes; [3]) was −2.0 (12.50) U/L, the “ratio of DHT/T based on Cavg0-24 h” value ([2]; Week 3) was 0.24 and the “ratio of DHT/T based on Cmax” value ([2]; Week 3) was 0.16. The “ratio of DHT/T based on Cavg0-24 h” value ([2]; Week 7) was 0.26, the “ratio of DHT/T based on Cmax” value ([2]; Week 7) was 0.18 and the “ratio of DHT/T based on Cavg0-24 h” value ([2]; Week 13) was 0.26. The “ratio of DHT/T based on Cmax” value ([2]; Week 13) was 0.18, the “Calculated free T levels” value ([2]; normal values 9 to 30 ng/dL) was “consistently within normal values” and the “Mean relative liver fat % change” value (liver fat; baseline liver fat of 8% or greater) was −42%. For the same compound, the “Mean relative liver fat % change” value (liver fat; baseline liver fat of 10% or greater) was −40%, the “Mean relative liver fat % change” value (liver fat; subjects having NAFLD (baseline liver fat of 5% or greater)) was −33% and the “NAFLD resolved (baseline liver fat greater than or equal to 5% going to less than 5% at end of study), % of subjects” value (liver fat; end of study) was 48%. The “mean relative liver fat change in patients with NAFLD resolution” value (liver fat; end of study) was −55%, the “responder rate (% of patients with at least a 30% relative reduction in liver fat from baseline)” value (liver fat; end of study, greater than or equal to 5% baseline liver fat) was 71% and the “responder rate (% of patients with at least a 30% relative reduction in liver fat from baseline)” value (liver fat; end of study, greater than or equal to 8% baseline liver fat) was 80%. For the same compound, the “responder rate (% of patients with at least a 30% relative reduction in liver fat from baseline)” value (liver fat; end of study, greater than or equal to 10% baseline liver fat) was 70%, the “relative mean liver fat reduction from baseline” value (liver fat; [5]) was 38% and the “responder rate: at least a 4.1% absolute reduction in liver fat from baseline” value (liver fat; [5]) was 86%. For the same compound, the “responder rate: at least a 29% reduction in liver fat from baseline” value (liver fat; [5]) was 71% and the “absolute mean reduction from baseline of liver fat (MRI-PDFF)” value (liver fat; interim, eight-week MRI-PDFF, seven subjects with baseline liver fat of at least 10%, baseline mean 21.0%) was 7.6%.
